Source: paper PMC13242511, “Disrupting Notch signalling by a small molecule inhibiting dihydroorotate dehydrogenase activity” (Scientific Reports, 2026)
Several values for one entry are separate records, joined by “and”; a condition that tells them apart may be missing. Identical values can stand only once. Like-named read-outs stand apart in the source and are kept apart here. Values belong to the compound of their own block, whether it stands above or below them.

Assays:
Notch signalling = assay: Notch reporter assay (12xCSL firefly luciferase / renilla luciferase, HEK293T Notch1ΔE reporter cell line clone #A1-11); assay type: cell-based; design: AUC Notch: scale not given here; details: for Bottom (Emax): Emax indicated independent from assay constraints, in % (unit assumed); for AUC Notch: area under the 14-point dose-response curve; for activity: 1,25µM
In short: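 Compounds at two-fold concentration in 10 µl medium were brought to one-fold by adding 10 µl holding 4000 Notch reporter cells (clone #A1-11) per well of a 384-well plate. After 24 h, Promega dual-GLO firefly and renilla luciferase were read on a SpectraMaxi3. Dose-response curves were fitted with a log(inhibitor) vs. response variable-slope model.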

γ-secretase complex = γ-secretase complex (Homo sapiens, UniProt P49768); assay: APP-C99 counter assay (GSI reporter assay); assay type: cell-based; design: AUC APP: scale not given here; details: for AUC APP: area under the 14-point dose-response curve, replicates averaged; for remaining activity at 10 µM / remaining activity at 25 µM / remaining activity at […]: 24 h, APP-C99 counter assay, read-out: 3p-DR in % of DMSO counter; for remaining activity at […]: 1,25µM
In short: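 Cells transfected with APP-C99 firefly luciferase reporter plus renilla normalization plasmid, seeded 24 h later onto compound plates and cultured 24 h. Dual luciferase read in triplicate per concentration; IC50 from variable-slope log(inhibitor) fit, with AUC also calculated from dose–response curves.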

[1] = 9p dose response, AUCs averaged when replicates available
[2] = 9p dose response, log10 of averaged IC50
[3] = 14p dose response, AUCs averaged when replicates available
[4] = overview in comparison to compound C, Supplemental Fig. 9
[5] = 14p APP assay DR, bottom constrained to Emax of positive control LY-411575
[6] = Homo sapiens, HEK-293T, 14-point dose-response, Fig. 4, read-out: approximated IC50, Notch reporter assay
[7] = Homo sapiens, HEK-293T, 14p Notch assay DR, bottom constrained to Emax of positive control DAPT, read-out: approximated IC50
[8] = Homo sapiens, HEK-293T, 14p Notch assay DR, log10 value, bottom constrained to Emax of positive control DAPT, read-out: approximated LogIC50 (converted)
[9] = Homo sapiens, HEK-293T, 10 µM, primary screen, 24 h, unit from Fig. 2 legend, read-out: Primary screen at 10 µM (Notch reporter signal)
[10] = Homo sapiens, HEK-293T, 10 µM, three-dose confirmation screen, unit from Fig. 2 legend, read-out: Hit confirmation at 10 µM (Notch reporter signal)
[11] = Homo sapiens, HEK-293T, 10µM, 3-point DR confirmation screen, Notch reporter assay, read-out: inhibitor ratio in % of DMSO in 3 point DR
[12] = Homo sapiens, HEK-293T, 10 µM, sheet conf vs counter 10 µM, same values as 3-point DR confirmation screen, read-out: Confirmation screen
[13] = Homo sapiens, HEK-293T, 25µM, 3-point DR confirmation screen, Notch reporter assay, read-out: inhibitor ratio in % of DMSO in 3 point DR
[14] = Homo sapiens, HEK-293T, 25 µM, Notch reporter 3-point dose-confirmation assay, sheet "conf vs counter 25 µM", read-out: Confirmation screen
[15] = Homo sapiens, HEK-293T, 3-point DR confirmation screen, Notch reporter assay, read-out: inhibitor ratio in % of DMSO in 3 point DR

SMILES: NC(=O)[C@@H](CC1CC1)[C@@H](CCC(F)(F)F)C(=O)N[C@H]1N=C(c2ccccc2)c2cccc(F)c2NC1=O [BMS-983970, reference compound]
IC50 (Notch signalling; 9p dose response, single replicates, read-out: approximated IC50s 9p Notch reporter assay): 1.2 nM
AUC 9p Notch reporter assay (Notch signalling; [1]): 2.16E+02
IC50 (Notch signalling; 9p dose response, averaged over replicates, read-out: 9p Notch reporter assay averaged IC50s): 1.2 nM
9p Notch reporter assay averaged IC50s (log) (Notch signalling; [2]): -8.9
IC50 (Notch signalling; 14-point, unit inferred, replicates averaged, read-out: approxiated IC50s 14p Notch reporter assay): 3.6 nM
Bottom (Emax) (Notch signalling; 14p Notch assay DR): 49.6 and 50.5 and 62.5
IC50 (Notch signalling; 14p Notch assay DR, Notch inhibitor controls, no bottom constraint named, read-out: approximated IC50): 3.6 nM and ~2.3 nM
IC50 (Notch signalling; 14p Notch assay DR, averaged when replicate measurements were available, read-out: averaged IC50s): 3.6 nM
approximated LogIC50 [M] (Notch signalling; 14p Notch assay DR, log10 value, Notch inhibitor controls, no bottom constraint named): -8.5 M
IC50 (Notch signalling; 14p dose response, single replicates, read-out: approximated IC50s 14p Notch reporter assay): 3.6 nM and 3.5 nM
AUC 14p Notch reporter assay (Notch signalling; [3]): 4.10E+02
IC50 (Notch signalling; 14p dose response, averaged over replicates, read-out: 14p Notch reporter assay averaged IC50s): 3.6 nM
14p Notch reporter assay averaged IC50s (log) (Notch signalling; 14p dose response, log10 of averaged IC50): -8.4
AUC Notch (Notch signalling; replicates averaged): 410.0
Notch assay (Notch signalling; [4]): higher potency
Hill-Slope 9p APP counter assay averaged (γ-secretase complex; 9p dose response): -1.6
AUC 9p APP-counter assay (γ-secretase complex; [1]): 2.41E+02
IC50 (γ-secretase complex; 9p dose response, averaged, read-out: 9p APP counter assay averaged IC50s): 22 nM
9p APP counter assay averaged IC50s (log) (γ-secretase complex; [2]): -7.7
IC50 (γ-secretase complex; 9p dose response, read-out: approximated IC50s 9p APP counter assay): 22 nM
IC50 (γ-secretase complex; 14-point, unit inferred, some fits outside of tested concentration range, read-out: approximated IC50s 14p APP-counter assay): 400 nM
Bottom (Emax) (γ-secretase complex; 14p APP assay DR, Emax indicated independent from assay constraints): 45.9 and 48.3
IC50 (γ-secretase complex; 14p APP assay DR, Notch inhibitor controls, no bottom constraint named, read-out: approximated IC50): 44 nM and 70 nM
AUC. 14p APP-counter assay (γ-secretase complex; [3]): 4.87E+02
IC50 (γ-secretase complex; 14p dose response, averaged over replicates, read-out: 14p APP counter assay averaged IC50s): 57 nM
AUC APP (γ-secretase complex): 486.6
APP assay (γ-secretase complex; [4]): higher potency

SMILES: Oc1cc(-c2ccccc2)nn1-c1nc2ccccc2s1 [CBK016481]
approximated IC50, Notch reporter assay (Notch signalling; 14-point dose-response, Fig. 4): Indeterminate
Bottom (Emax) (Notch signalling; 14p Notch assay DR): 98.5
AUC Notch (Notch signalling; replicates averaged): 626.0
Hill-slope (γ-secretase complex; [5]): 0.00215
AUC APP (γ-secretase complex): 668.5

SMILES: Cc1ccccc1CN1CCC2(CC1)OCCc1c2[nH]c2ccc(Br)cc12 [CBK040353]
Bottom (Emax) (Notch signalling; 14p Notch assay DR): 48.2
IC50 (Notch signalling; [6]): 1800 nM
IC50 (Notch signalling; [7]): 1700 nM
IC50 (Notch signalling; [8]): 1580 nM
AUC Notch (Notch signalling; replicates averaged): 584.0
Hill-slope (γ-secretase complex; [5]): 0.0279
AUC APP (γ-secretase complex): 724.9

SMILES: COc1cc(Nc2nc(-c3cccc(NC(C)=O)c3)cn3ccnc23)cc(OC)c1OC [CBK038093]
Bottom (Emax) (Notch signalling; 14p Notch assay DR): 21.1
IC50 (Notch signalling; [7]): 5600 nM
IC50 (Notch signalling; [8]): 5010 nM
activity at 10 µM (Notch signalling; [9]): 46.2%
activity at 10 µM (Notch signalling; [10]): 56.1%
activity at 10 µM (Notch signalling; [11]): 56.1%
activity at 10 µM (Notch signalling; [12]): 56.1%
activity at 25 µM (Notch signalling; [13]): 41.5%
activity at 25 µM (Notch signalling; [14]): 41.5%
activity (Notch signalling; [15]): 96.6%
AUC Notch (Notch signalling; replicates averaged): 304.0
Hill-slope (γ-secretase complex; [5]): 0.0389
remaining activity at 10 µM (γ-secretase complex): 180%
remaining activity at 25 µM (γ-secretase complex): 242%
remaining activity at […] (γ-secretase complex): 132%
AUC APP (γ-secretase complex): 493.6

More lines, main results first:

IC50 (Notch signalling; [7]): 27000 nM
IC50 (Notch signalling; [8]): 25100 nM
Hill-slope (γ-secretase complex; [5]): 0.0659
AUC APP (γ-secretase complex): 523.0
SMILES: COc1ccccc1-c1cn2ccnc2c(Nc2cc(OC)c(OC)c(OC)c2)n1 [CBK066148]
Bottom (Emax) (Notch signalling; 14p Notch assay DR): 58.8
AUC Notch (Notch signalling; replicates averaged): 336.0

IC50 (Notch signalling; [7]): 1800 nM
IC50 (Notch signalling; [8]): 1580 nM
Hill-slope (γ-secretase complex; [5]): -2.8
remaining activity at 10 µM (γ-secretase complex): 80.5%
remaining activity at 25 µM (γ-secretase complex): 59.7%
remaining activity at […] (γ-secretase complex): 124%
AUC APP (γ-secretase complex): 428.7
SMILES: CC(=O)Oc1cccc(N2C(=O)c3ccc(Oc4cccc(N)c4)cc3C2=O)c1 [CBK261099]
Bottom (Emax) (Notch signalling; 14p Notch assay DR): 18.6
activity at 10 µM (Notch signalling; [9]): 31.5%
activity at 10 µM (Notch signalling; [10]): 28.1%
activity at 10 µM (Notch signalling; [11]): 28.1%
activity at 10 µM (Notch signalling; [12]): 28.1%
activity at 25 µM (Notch signalling; [13]): 20.3%
activity at 25 µM (Notch signalling; [14]): 20.3%
activity (Notch signalling; [15]): 87.9%
AUC Notch (Notch signalling; replicates averaged): 282.0

curve fit information (γ-secretase complex; [5]): IC50 indeterminate
AUC APP (γ-secretase complex): 642.7
SMILES: CC(=O)N1CCc2sccc2C1c1ccccc1NC(=O)c1ccco1 (stereo not drawn) [CBK286436]
Bottom (Emax) (Notch signalling; 14p Notch assay DR): 99.7
AUC Notch (Notch signalling; replicates averaged): 629.0

IC50 (Notch signalling; [6]): 7500 nM
IC50 (Notch signalling; Homo sapiens, HEK-293T, 14p Notch assay DR, bottom constrained to Emax of positive control RO4929097, read-out: approximated IC50): 7400 nM
IC50 (Notch signalling; Homo sapiens, HEK-293T, 14p Notch assay DR, log10 value, bottom constrained to Emax of positive control RO4929097, read-out: approximated LogIC50 (converted)): 7940 nM
Hill-slope (γ-secretase complex; [5]): 0.0127
AUC APP (γ-secretase complex): 416.6
SMILES: CCc1c(C)sc(NC(=O)C2CCC2)c1C(=O)NCc1cccnc1 [CBK307414]
AUC Notch (Notch signalling; replicates averaged): 311.0
